Laboratory results as given in publication PMC8459971, “Evaluation of the hepatotoxicity of the novel GPR40 (FFAR1) agonist CPL207280 in the rat and monkey” (PLoS ONE, 2021).
Several values for one entry are separate records, joined by “and”; a condition that tells them apart may be missing. Equal entries are not always repeated. Where two headings read alike, the source gives them in different places.

What was measured:
[1] = Viability assay, HepG2 cells, MTT test, 48 h; type: cell-based, human; settings: human, HepG2 cells, sheet Fig1 panel B (HepG2), 48 h, replicates, read-out: viability, normalized to DMSO-treated controls
Protocol: (§1) To study the viability of the liver cells, 5 × 10^3 HepG2 (ATCC®) or human primary cells (ThermoFisher Scientific, USA) were seeded in 100 μL of DMEM media (Gibco; Thermo Fisher Scientific, USA) supplemented with fetal bovine serum (FBS)- in a 96-well plate. […] The experiments were performed in triplicates.

HepG2 = assay: Viability assay, HepG2 cells, MTT test, 48 h; type: cell-based, human; settings: for viability, normalized to DMSO-treated controls: sheet Fig1 panel B (HepG2), replicates, in % (unit assumed)
Protocol: as §1

[2] = Single-dose pharmacokinetics in rats (p.o. and i.v.); type: in vivo, rat; parameters: plasma conc: unit not given here; settings: for plasma conc: single animals; for AUC: read-out: AUC
[3] = Stability in microsomes, monkey; type: in vitro ADME; settings: for average DEG [%]: monkey microsomes, with cofactors
Protocol: (§2) The final incubation volume was 500 μL. Two control compounds (verapamil and donepezil) were included for each microsomal species, along with the appropriate vehicle control. The reactions were terminated by transferring 50 μL of incubate to 100 μL methanol containing an internal standard (metoprolol) at appropriate time points (0, 10, 20, 40, 60, and 120 min for the test compound and 0, 5, 10, 20, 40, and 60 min for the control compounds). The termination plates were centrifuged at 4000 x g at 4°C for 30 min to precipitate the protein. The supernatants were then collected for analysis, and LC-MS/MS was used for detection purposes. The system consisted of an Acquity™ Binary Solvent Manager, Acquity™ 4-position heated column manager, 2777 Ultra High Pressure Autosampler, and a Xevo-TQ MS triple quadrupole mass spectrometer (Waters Ltd., Herts, UK). This process was carried out twice.

[4] = Stability in microsomes, mini pig; type: in vitro ADME; settings: for average DEG [%]: minipig microsomes, with cofactors
Protocol: as §2

OATP1B3 = biological target: T1, OATP1B3 (Homo sapiens, UniProt Q9NPD5); assay: Uptake transporter inhibition assay, OATP1B3
T1 sequence (Q9NPD5 1-702): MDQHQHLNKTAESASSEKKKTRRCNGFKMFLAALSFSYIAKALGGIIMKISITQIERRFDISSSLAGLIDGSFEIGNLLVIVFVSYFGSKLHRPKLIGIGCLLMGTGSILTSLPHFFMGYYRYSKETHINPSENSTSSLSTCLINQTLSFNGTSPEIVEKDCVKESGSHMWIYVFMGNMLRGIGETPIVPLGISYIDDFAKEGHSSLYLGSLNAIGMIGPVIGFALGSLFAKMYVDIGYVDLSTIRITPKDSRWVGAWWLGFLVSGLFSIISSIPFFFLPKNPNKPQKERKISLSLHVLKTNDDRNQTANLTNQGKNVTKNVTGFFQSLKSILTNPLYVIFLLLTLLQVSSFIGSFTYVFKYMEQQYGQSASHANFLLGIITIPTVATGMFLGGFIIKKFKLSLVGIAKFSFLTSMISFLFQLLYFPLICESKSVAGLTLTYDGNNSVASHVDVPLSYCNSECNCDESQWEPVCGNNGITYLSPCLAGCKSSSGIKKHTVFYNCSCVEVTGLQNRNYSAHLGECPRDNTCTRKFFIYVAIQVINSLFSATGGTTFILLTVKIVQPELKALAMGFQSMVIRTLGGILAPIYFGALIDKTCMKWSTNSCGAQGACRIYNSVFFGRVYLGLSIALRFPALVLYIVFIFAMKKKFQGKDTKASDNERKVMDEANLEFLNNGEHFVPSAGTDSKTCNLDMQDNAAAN
Protocol: For the uptake transporter inhibition assay, cells were washed twice with 100 μL of the appropriate buffer (HK, pH 7.4) for OATP1B1, followed by HBSS (pH 7.4) for (NTCP, OAT1, OAT2v1, OATP1A2, and OATP1B3). Uptake experiments were carried out at 37 ± 1°C in 50 μL of the respective buffer containing the probe substrate and the compound or solvent. […] After the experiment, cells were washed twice with 100 μL of cold appropriate buffer and lysed with 50 μL of 0.1 M NaOH. Radiolabeled probe substrate transport was determined by measuring an aliquot (35 μL) from each well for liquid scintillation counting.

[5] = Stability in microsomes, dog; type: in vitro ADME; settings: for average DEG [%]: dog microsomes, with cofactors
Protocol: as §2

[6] = Stability in microsomes, human; type: in vitro ADME; settings: for average DEG [%]: human microsomes, with cofactors
Protocol: as §2

MRP2 = MRP2 (Homo sapiens, UniProt Q92887); assay: Vesicular transport inhibition assay, MRP2; settings: for Accumulation (counts per minute; CPM) with AMP / Accumulation (counts per minute; CPM) with ATP: MRP2;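 also: membrane vesicles with probe substrate plus 2 mM glutathione, incubated with 4 mM ATP or AMP (AMP as background control), vesicle-retained substrate measured by liquid scintillation counting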;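 as to Accumulation (counts per minute; CPM) with AMP: ATP 4 mM vs AMP background separates transporter uptake from diffusion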;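 as to Accumulation (counts per minute; CPM) with ATP: ATP 4 mM vs AMP background separates transporter uptake from diffusion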
Protocol: In the vesicular transport inhibition assay (for BSEP, MRP) compounds were incubated with membrane vesicle preparations and the probe substrate. Incubations were carried out in the presence of 4 mM ATP or AMP to distinguish between transporter-mediated uptake and passive diffusion into the vesicles. For MRP2 and MRP3, reactions were carried out in the presence of 2 mM glutathione. Compounds were added to the reaction mixture in 0.75 μL of solvent (1% of the final incubation volume). […] Reactions were initiated by the addition of 25 μL of 12 mM MgATP (or 12 mM AMP in assay buffer as a background control) and preincubated separately. Reactions were quenched by the addition of 200 μL of ice-cold washing buffer and immediate filtration via glass fiber filters mounted on a 96-well plate (filter plate). The filters were washed (5 × 200 μL of ice-cold washing buffer), dried, and the amount of substrate inside the filtered vesicles was determined by liquid scintillation counting.

[7] = rat, plasma, iv, 3 mg/kg, rats, 3 mg/kg i.v.
[8] = rat, plasma, po, 3 mg/kg, rats, 3 mg/kg p.o.
[9] = Monkey (Cynomolgus) microsomes, mean n = 2
[10] = Mini pig microsomes, mean n = 2
[11] = Dog (Beagle) microsomes, mean n = 2

MRP2, sequence (Q92887 whole entry, the tested form may be a part): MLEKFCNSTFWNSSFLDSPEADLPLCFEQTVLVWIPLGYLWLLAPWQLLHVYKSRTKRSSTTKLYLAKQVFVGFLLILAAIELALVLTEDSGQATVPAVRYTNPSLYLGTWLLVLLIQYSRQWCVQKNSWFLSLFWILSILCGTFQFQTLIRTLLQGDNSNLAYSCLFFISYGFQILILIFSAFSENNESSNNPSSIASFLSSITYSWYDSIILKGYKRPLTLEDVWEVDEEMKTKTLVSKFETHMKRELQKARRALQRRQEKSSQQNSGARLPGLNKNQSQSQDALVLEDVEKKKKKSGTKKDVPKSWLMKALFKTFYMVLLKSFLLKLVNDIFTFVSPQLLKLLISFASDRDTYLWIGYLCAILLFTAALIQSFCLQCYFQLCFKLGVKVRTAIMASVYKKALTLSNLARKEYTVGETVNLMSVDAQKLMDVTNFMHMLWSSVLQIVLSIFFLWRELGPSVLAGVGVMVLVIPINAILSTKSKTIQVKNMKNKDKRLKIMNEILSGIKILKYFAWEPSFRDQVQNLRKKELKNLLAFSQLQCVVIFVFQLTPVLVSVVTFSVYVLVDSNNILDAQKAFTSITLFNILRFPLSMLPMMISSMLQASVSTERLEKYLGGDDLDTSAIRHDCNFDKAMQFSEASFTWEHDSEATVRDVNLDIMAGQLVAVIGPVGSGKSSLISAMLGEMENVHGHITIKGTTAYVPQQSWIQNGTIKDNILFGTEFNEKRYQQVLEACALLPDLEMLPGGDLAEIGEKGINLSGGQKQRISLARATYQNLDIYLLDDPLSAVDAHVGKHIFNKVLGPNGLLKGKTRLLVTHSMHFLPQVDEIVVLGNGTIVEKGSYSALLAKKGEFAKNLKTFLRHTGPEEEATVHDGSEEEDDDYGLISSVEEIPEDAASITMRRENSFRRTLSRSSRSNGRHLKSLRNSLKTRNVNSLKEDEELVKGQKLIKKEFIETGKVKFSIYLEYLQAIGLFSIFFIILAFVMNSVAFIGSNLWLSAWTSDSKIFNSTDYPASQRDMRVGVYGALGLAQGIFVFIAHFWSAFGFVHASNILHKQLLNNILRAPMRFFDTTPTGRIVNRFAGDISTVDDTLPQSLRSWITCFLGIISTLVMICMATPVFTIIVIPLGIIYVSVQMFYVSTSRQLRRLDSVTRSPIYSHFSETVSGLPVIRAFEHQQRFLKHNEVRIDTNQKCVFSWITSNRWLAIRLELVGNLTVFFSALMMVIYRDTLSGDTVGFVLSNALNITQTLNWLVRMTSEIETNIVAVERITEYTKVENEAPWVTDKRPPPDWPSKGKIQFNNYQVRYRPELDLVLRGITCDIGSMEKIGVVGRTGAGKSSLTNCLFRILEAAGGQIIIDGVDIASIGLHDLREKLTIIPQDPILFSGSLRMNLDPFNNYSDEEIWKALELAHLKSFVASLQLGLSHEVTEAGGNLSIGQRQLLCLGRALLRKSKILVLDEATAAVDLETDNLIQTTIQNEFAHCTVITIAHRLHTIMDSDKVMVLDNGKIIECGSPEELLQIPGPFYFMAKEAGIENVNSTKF

Cc1cc(OCCCS(C)(=O)=O)cc(C)c1-c1cccc(COc2ccc3c(c2)OC[C@H]3CC(=O)O)c1 [TAK-875, fasiglifam, reference compound]
viability at 48 h, 25 µM ([1]; 25 uM): 67.5% | viability at 48 h, 50 µM ([1]; 50 uM): 61.2% | effect on growth (HepG2; HepG2, 48 h, 100 μM): abolished the growth | viability (HepG2; HepG2, 48 h, concentrations up to 10 μM): Neither compound exhibited altered viability | IC50 (HepG2; hepatocytes (HepG2 and human primary cells), 48 h, read-out: IC50 in the viability study): ~50 µM | viability, normalized to DMSO-treated controls (HepG2; 48 h, 0.78 uM): 126.396 | viability, normalized to DMSO-treated controls (HepG2; 48 h, 3.125 uM): 63.2509 | viability, normalized to DMSO-treated controls (HepG2; 48 h, 6.25 uM): 66.4311 | viability, normalized to DMSO-treated controls (HepG2; 48 h, 25 uM): 47.9859 and 54.8143 | viability, normalized to DMSO-treated controls (HepG2; 48 h, 50 uM): 48.6926 and 45.8734 | viability, normalized to DMSO-treated controls (HepG2; 48 h, 100 uM): 25.4386 and 23.9576 and 12.1733 | plasma conc ([2]; rat, 3 mg/kg i.v., 0.08 h, 3 mg/kg): 14090 and 15902 and 15227 and 5072 | plasma conc ([2]; rat, 3 mg/kg i.v., 0.5 h, 3 mg/kg): 14558 and 12270 and 9258 and 3810 | plasma conc ([2]; rat, 3 mg/kg i.v., 1 h, 3 mg/kg): 8089 and 7692 and 11373 and 4600 | plasma conc ([2]; rat, 3 mg/kg i.v., 2 h, 3 mg/kg): 5223 and 7517 and 9423 | plasma conc ([2]; rat, 3 mg/kg i.v., 4 h, 3 mg/kg): 3618 and 4301 and 3765 | plasma conc ([2]; rat, 3 mg/kg i.v., 7 h, 3 mg/kg): 1974 and 2103 and 1928 and 4512 | plasma conc ([2]; rat, 3 mg/kg i.v., 12 h, 3 mg/kg): 1056 and 769 and 1435 | plasma conc ([2]; rat, 3 mg/kg p.o., 0.5 h, 3 mg/kg): 1176 and 692 and 854 and 1110 | plasma conc ([2]; rat, 3 mg/kg p.o., 1 h, 3 mg/kg): 1699 and 1467 and 1460 and 1557 | plasma conc ([2]; rat, 3 mg/kg p.o., 2 h, 3 mg/kg): 1890 and 1694 and 1808 and 1814 | plasma conc ([2]; rat, 3 mg/kg p.o., 4 h, 3 mg/kg): 1443 and 1502 and 1610 and 1643 | plasma conc ([2]; rat, 3 mg/kg p.o., 8 h, 3 mg/kg): 681 and 636 and 614 and 960 and 463 | plasma conc ([2]; rat, 3 mg/kg p.o., 24 h): 0 | Tmax [2, 7]: 0.083 h | Cmax ([2]; rat, plasma, iv, 3 mg/kg, rats, 3 mg/kg i.v., n = 5, read-out: Cmax): 15.1 ± 0.916 µg/mL | AUC [2, 7]: 45.2 ± 4.68 µg·h/mL | bioavailability ([2]; rat, plasma, oral, rats, 3 mg/kg p.o. vs i.v., read-out: F (bioavailability)): 38% | Tmax [2, 8]: 2 h | AUC [2, 8]: 15.8 ± 1.51 µg·h/mL | Vd ([2]; rat, plasma, rats, 3 mg/kg): 0.25 ± 0.01 L/kg | k el ([2]; rat, plasma, rats, 3 mg/kg): 6.67e-05 s⁻¹ | greater distribution volume (Vd) than CPL207280 ([2]; rats, 3 mg/kg): 20% | half-life at 3 μM [3, 9]: 0.5 h | microsomal CLint at 3 μM [3, 9]: 39.2 µL/min/mg | average DEG [%] ([3]; 0 min): 100.0% | average DEG [%] ([3]; 20 min): 61.2% | average DEG [%] ([3]; 40 min): 37.2% | average DEG [%] ([3]; 60 min): 32.0% | half-life at 3 μM [4, 10]: 0.25 h | microsomal CLint at 3 μM [4, 10]: 91.1 µL/min/mg | average DEG [%] ([4]; 0 min): 100.0% | average DEG [%] ([4]; 20 min): 29.4% | average DEG [%] ([4]; 40 min): 13.1% | average DEG [%] ([4]; 60 min): 5.83% | IC50 (OATP1B3): 3.44 µM | half-life at 3 μM [5, 11]: 1.87 h | microsomal CLint at 3 μM [5, 11]: 12.4 µL/min/mg | average DEG [%] ([5]; 0 min): 100.0% | average DEG [%] ([5]; 20 min): 82.2% | average DEG [%] ([5]; 40 min): 77.1% | average DEG [%] ([5]; 60 min): 67.7% | half-life at 3 μM ([6]; Human microsomes, mean n = 2): 3.5 h | microsomal CLint at 3 μM ([6]; Human microsomes, mean n = 2): 6.6 µL/min/mg | stability classification in microsomes ([6]; based on the Clint values from different species, reference ranges by Cyprotex (human range given in legend)): stable compound | average DEG [%] ([6]; 0 min): 100.0% | average DEG [%] ([6]; 20 min): 110.6% | average DEG [%] ([6]; 40 min): 92.5% | average DEG [%] ([6]; 60 min): 85.1% | IC50 (MRP2): 48.1 µM | Accumulation (counts per minute; CPM) with AMP (MRP2; conc 0.07 µM): 234 CPM and 221 CPM | Accumulation (counts per minute; CPM) with ATP (MRP2; conc 0.07 µM): 3160 CPM and 3355 CPM | Accumulation (counts per minute; CPM) with AMP (MRP2; conc 0.21 µM): 218 CPM and 217 CPM | Accumulation (counts per minute; CPM) with ATP (MRP2; conc 0.21 µM): 3318 CPM and 3579 CPM | Accumulation (counts per minute; CPM) with AMP (MRP2; conc 0.62 µM): 249 CPM and 186 CPM | Accumulation (counts per minute; CPM) with ATP (MRP2; conc 0.62 µM): 3453 CPM and 3166 CPM | Accumulation (counts per minute; CPM) with AMP (MRP2; conc 16.67 µM): 211 CPM and 200 CPM | Accumulation (counts per minute; CPM) with ATP (MRP2; conc 16.67 µM): 2989 CPM and 3430 CPM | Accumulation (counts per minute; CPM) with AMP (MRP2; conc 50.00 µM): 220 CPM and 191 CPM | Accumulation (counts per minute; CPM) with ATP (MRP2; conc 50.00 µM): 1700 CPM and 1670 CPM
